According to patent US10077264B2, “Derivatives and methods of treating hepatitis B infections” (Novira Therapeutics, Inc., priority 2014, dated 2018):

Test system: HBV replication in HepG2.2.15 cells
Experiment: HBV replication inhibition assay (BDNA assay)
Format: cell-based
Conditions: HepG2.2.15 cells, 6 days, encapsidated HBV DNA in supernatant; read-out: Activity in BDNA-assay (EC50)
From the text: HBV replication inhibition by the compounds of this invention could be determined in cells infected or transfected with HBV, or cells with stably integrated HBV, such as HepG2.2.15 cells (Sells et al. 1987). In this example, HepG2.2.15 cells were maintained in cell culture medium containing 10% fetal bovine serum (FBS), Geneticin, L-glutamine, penicillin and streptomycin. HepG2.2.15 cells could be seeded in 96-well plates at a density of 40,000 cells/well and be treated with serially diluted compounds at a final DMSO concentration of 0.5% either alone or in combination by adding drugs in a checker box format. Cells were incubated with compounds for three days, after which medium was removed and fresh medium containing compounds was added to cells and incubated for another three days. At day 6, supernatant was removed and treated with DNase at 37° C. for 60 minutes, followed by enzyme inactivation at 75° C. for 15 minutes. Encapsidated HBV DNA was released from the virions and covalently linked HBV polymerase by incubating in lysis buffer (Affymetrix QS0010) containing […] proteinase K at 50° C. for 40 minutes. HBV DNA was denatured by addition of 0.2 M NaOH and detected using a branched DNA (BDNA) QuantiGene assay kit according to manufacturer recommendation (Affymetrix). HBV DNA levels could also be quantified using qPCR, based on amplification of encapsidated HBV DNA extraction with QuickExtraction Solution (Epicentre Biotechnologies) and amplification of HBV DNA using HBV specific PCR probes that can hybridize to HBV DNA and a fluorescently labeled probe for quantitation. In addition, cell viability of HepG2.2.15 cells incubated with test compounds alone or in combination was determined by using CellTitre-Glo reagent according to the manufacturer protocol (Promega). The mean background signal from wells containing only culture medium was subtracted from all other samples, and percent inhibition at each compound concentration was calculated by normalizing to signals from HepG2.2.15 cells treated with 0.5% DMSO using equation E1. % inhibition=(DMSOave−Xi)/DMSOave×100% E1: • where DMSOave is the mean signal calculated from the wells that were treated with DMSO control (0% inhibition control) and Xi is the signal measured from the individual wells. EC50 values, effective concentrations that achieved 50% inhibitory effect, were determined by non-linear fitting using Graphpad Prism software (San Diego, Calif.) and equation E2 Y=Ymin+(Ymax−Ymin)/(1+10(Log EC50−X)×HillSlope) E2: • where Y represents percent inhibition values and X represents the logarithm of compound concentrations.
Selected compounds of the invention were assayed in the HBV replication assay (BDNA assay), as described above and a representative group of these active compounds is shown in Table 3.

Compound	EC50 [nM]
CC1Cc2[nH]nc(-c3ccccc3)c2CN1C(=O)Nc1cccc(Cl)c1 (single isomer, unassigned) [317 (E1), N-(3-chlorophenyl)-6-methyl-3-phenyl-1,4,6,7-tetrahydropyrazolo[4,3-c]pyridine-5-carboxamide]	10 to 100
CC1Cc2[nH]nc(-c3cscn3)c2CN1C(=O)Nc1ccnc(Br)c1F (stereo not shown) [921 E2]	10 to 100
CC1Cc2[nH]nc(-c3ccccc3)c2CN1C(=O)Nc1cccc(Cl)c1 (single isomer, unassigned) [317 (E2), N-(3-chlorophenyl)-6-methyl-3-phenyl-1,4,6,7-tetrahydropyrazolo[4,3-c]pyridine-5-carboxamide]	100 to 500
CC1Cc2[nH]nc(-c3cscn3)c2CN1C(=O)Nc1ccc(F)c(C#N)c1 (stereo not shown) [922 E2]	10 to 100
CC1Cc2[nH]nc(-c3cscn3)c2CN1C(=O)Nc1ccc(F)c(Cl)c1 (stereo not shown) [917 E2]	10 to 100

Same assay, conditions: Hepatitis B virus, 144 h; HepG2.2.15 cells, 10 μM, 6 days, encapsidated HBV DNA in supernatant; read-out: Activity in BDNA-assay (activity at 10 μM)

Compound	inhibition at 10 µM [%]
O=C(OCc1ccccc1)N1CCc2[nH]nc(-c3ccccc3)c2C1 [Compound 024, benzyl 3-phenyl-1,4,6,7-tetrahydropyrazolo[4,3-c]pyridine-5-carboxylate]	> 50
Cc1ccc(-c2n[nH]c3c2CN(C(=O)Nc2cccc(Cl)c2)CC3)cc1 [Compound 281, N-(3-chlorophenyl)-3-(p-tolyl)-1,4,6,7-tetrahydropyrazolo[4,3-c]pyridine-5-carboxamide]	> 50
O=C(COc1cccc(F)c1)N1CCc2[nH]nc(-c3ccccc3)c2C1 [Compound 143]	> 50
O=C(COc1ccccc1Cl)N1CCc2[nH]nc(-c3ccccc3)c2C1 [Compound 148]	> 50
O=C(CCc1ccccc1)N1CCc2[nH]nc(-c3ccccc3)c2C1 [Compound 027, 3-phenyl-1-(3-phenyl-1,4,6,7-tetrahydropyrazolo[4,3-c]pyridin-5-yl)propan-1-one]	> 50
O=C(Nc1cc(Cl)ccc1F)N1CCc2[nH]nc(-c3ccccc3)c2C1 [Compound 214]	> 50
N#Cc1ccc(Cl)cc1NC(=O)N1CCc2[nH]nc(-c3ccccc3)c2C1 [Compound 201]	> 50
O=C(Nc1ccc(Br)c(Cl)c1)N1CCc2[nH]nc(-c3ccccc3)c2C1 [Compound 204]	> 50
O=C(NCc1ccccc1)N1CCc2[nH]nc(-c3ccccc3)c2C1 [Compound 017, N-benzyl-3-phenyl-1,4,6,7-tetrahydropyrazolo[4,3-c]pyridine-5-carboxamide]	> 50
O=C(COc1cncnc1)N1CCc2[nH]nc(-c3ccccc3)c2C1 [Compound 001]	> 50
O=C(Nc1cnc(Cl)c(Cl)c1)N1CCc2[nH]nc(-c3ccccc3)c2C1 [Compound 226]	> 50
O=C(COc1ccccc1C(F)(F)F)N1CCc2[nH]nc(-c3ccccc3)c2C1 [Compound 163]	> 50
O=C(/C=C/c1ccccc1)N1CCc2[nH]nc(-c3ccccc3)c2C1 [Compound 057, (E)-3-phenyl-1-(3-phenyl-1,4,6,7-tetrahydropyrazolo[4,3-c]pyridin-5-yl)prop-2-en-1-one]	> 50
Cc1cccc(OCC(=O)N2CCc3[nH]nc(-c4ccccc4)c3C2)c1 [Compound 145]	> 50
O=C(Nc1ccc(Cl)cc1)N1CCc2[nH]nc(-c3ccccc3)c2C1 [Compound 113]	> 50

Same assay, conditions: Hepatitis B virus, HepG2.2.15, 144 h, HepG2.2.15 cells, 6 days, encapsidated HBV DNA in supernatant; read-out: Activity in BDNA-assay (EC50)

Compound	EC50 [nM]
O=C(Nc1cccc(Cl)c1)N1CCc2[nH]nc(-c3cncnc3)c2C1 [Compound 291, N-(3-chlorophenyl)-3-pyrimidin-5-yl-1,4,6,7-tetrahydropyrazolo[4,3-c]pyridine-5-carboxamide]	100 to 500
O=C(Nc1ccc(F)c(Cl)c1F)N1CCc2[nH]nc(-c3ccccc3)c2C1 [Compound 205]	100 to 500
Cc1cccc(-c2n[nH]c3c2CN(C(=O)Nc2cccc(Cl)c2)CC3)c1 [Compound 280, N-(3-chlorophenyl)-3-(m-tolyl)-1,4,6,7-tetrahydropyrazolo[4,3-c]pyridine-5-carboxamide]	100 to 500
O=C(Nc1cccc(Cl)c1)N1CCc2[nH]nc(-c3ncccn3)c2C1 [Compound 289, N-(3-chlorophenyl)-3-pyrimidin-2-yl-1,4,6,7-tetrahydropyrazolo[4,3-c]pyridine-5-carboxamide]	10 to 100
O=C(Nc1cccc(Cl)c1)N1CCc2[nH]nc(-c3cccnn3)c2C1 [Compound 290]	10 to 100
O=C(Nc1cccc(C2CC2)c1)N1CCc2[nH]nc(-c3ccccc3)c2C1 [Compound 556]	100 to 500
O=C(Nc1cccc(Cl)c1)N1CCc2c(ncn2-c2ccccc2)C1 [Compound 583, N-(3-chlorophenyl)-1-phenyl-6,7-dihydro-4H-imidazo[4,5-c]pyridine-5-carboxamide]	1500 to 5000
O=C(Nc1cccc(Cl)c1)N1CCc2[nH]nc(-c3ccsc3)c2C1 [Compound 562, N-(3-chlorophenyl)-3-(3-thienyl)-1,4,6,7-tetrahydropyrazolo[4,3-c]pyridine-5-carboxamide]	10 to 100
Cc1cccc(NC(=O)N2Cc3c(-c4cscn4)n[nH]c3CC2C)c1 (stereo not shown) [923 E1]	10 to 100
Cc1ccccc1-c1n[nH]c2c1CN(C(=O)Nc1cccc(Cl)c1)CC2 [Compound 279, N-(3-chlorophenyl)-3-(o-tolyl)-1,4,6,7-tetrahydropyrazolo[4,3-c]pyridine-5-carboxamide]	100 to 500
O=C(Nc1cccc(Cl)c1)N1CCc2[nH]nc(-c3ccc(F)nc3)c2C1 [Compound 473, N-(3-chlorophenyl)-3-(6-fluoro-3-pyridyl)-1,4,6,7-tetrahydropyrazolo[4,3-c]pyridine-5-carboxamide]	500 to 1000
Cc1cc(NC(=O)N2Cc3c(-c4cscn4)n[nH]c3CC2C)ccc1F (stereo not shown) [924 E1]	10 to 100
O=C(Nc1ccc(F)c(Cl)c1)N1CCc2[nH]nc(-c3ccccc3)c2C1 [Compound 114]	10 to 100
Cn1nccc1-c1n[nH]c2c1CN(C(=O)Nc1cccc(Cl)c1)CC2 [Compound 496]	100 to 500
O=C(Nc1cc(Cl)ccc1Cl)N1CCc2[nH]nc(-c3ccccc3)c2C1 [Compound 191]	500 to 1000
N#Cc1cccc(NC(=O)N2CCc3[nH]nc(-c4ccccc4)c3C2)c1F [Compound 559]	10 to 100
CC(Oc1ccccc1)C(=O)N1CCc2[nH]nc(-c3ccccc3)c2C1 (stereo not shown) [Compound 014, 2-phenoxy-1-(3-phenyl-1,4,6,7-tetrahydropyrazolo[4,3-c]pyridin-5-yl)propan-1-one]	1000 to 1500
CC1Cc2[nH]nc(-c3cscn3)c2CN1C(=O)Nc1cccc(Br)c1 (stereo not shown) [918 E1]	10 to 100
Cc1c(Cl)cccc1NC(=O)N1CCc2[nH]nc(-c3ccccc3)c2C1 [Compound 192]	100 to 500
CC1c2c(-c3ccccc3)n[nH]c2CCN1C(=O)Nc1cccc(Cl)c1 (single isomer, unassigned) [318 (E1), N-(3-chlorophenyl)-4-methyl-3-phenyl-1,4,6,7-tetrahydropyrazolo[4,3-c]pyridine-5-carboxamide]	100 to 500
CC1Cc2[nH]nc(-c3cscn3)c2CN1C(=O)Nc1cccc(Br)c1F (stereo not shown) [920 E1]	10 to 100
O=C(Nc1cccc(Cl)c1)N1CCc2[nH]nc(-c3cccnc3)c2C1 [Compound 286, N-(3-chlorophenyl)-3-(3-pyridyl)-1,4,6,7-tetrahydropyrazolo[4,3-c]pyridine-5-carboxamide]	500 to 1000
O=C(Nc1cccc(Cl)c1)N1CCc2[nH]nc(-c3ccccc3)c2C1 [Compound 112]	10 to 100
